Reference: patent US20100249112A1, “COMBINATION OF CHK AND PARP INHIBITORS FOR THE TREATMENT OF CANCERS” (ASTRAZENECA R&D, priority 2007, published 2010)
Like-named read-outs stand apart in the source and are kept apart here.

What was measured:
SW620 cell line = test: MTS cell viability assay, CHK-PARP combination, SW620; assay type: cell-based; conditions: for IC50: Homo sapiens, SW-620, 96 h
Description: (§1) Combination experiments were carried out to assess the ability of a CHK inhibitor, i.e., 5-(3-Fluoro-phenyl)-3-ureido-thiophene-2-carboxylic acid (S)-piperidin-3-ylamide, to sensitize cells to a PARP inhibitor, i.e., 4-[3-(4-Cyclopropanecarbonyl-piperazine-1-carbonyl)-4-fluoro-benzyl]-2H-phthalazin-1-one, using a cell viability endpoint.
(§2) The cell lines used in this study were SW620, which endogenously express mutant p53, and NCI-H460dominant negative p53 (NCI-H460dnp53), which are stably transfected to express dominant negative p53. Cells were seeded in 96-well plates on day 0 and treated with either a single drug or simultaneously with both drugs for 4 days beginning on Day 1.
(§3) For sequential addition, either the CHK inhibitor i.e., 5-(3-Fluoro-phenyl)-3-ureido-thiophene-2-carboxylic acid (S)-piperidin-3-ylamide, or the PARP inhibitor, i.e., 4-[3-(4-Cyclopropanecarbonyl-piperazine-1-carbonyl)-4-fluoro-benzyl]-2H-phthalazin-1-one, were added to cells for 24 hours beginning on Day 1, followed by addition of the other drug on Day 2, and exposure to both drugs continued for an additional 72 hours. […] Cells were dosed with the PARP inhibitor to generate a full dose-response curve. See Table 1 for an example of the drug concentrations used in each cell line.
(§4) Cell viability was measured on day 5 using an MTS colorimetric assay. Dose (concentration of drug used, uM) vs. Fraction unaffected (Fu) for PARP alone versus in combination were plotted. Replicate points for the constant concentration of the CHK inhibitor were also plotted. Data were analyzed by comparing the dose-response curve of the single agent to that for the combination.

NCI-H460dnp53 cell line = test: MTS cell viability assay, CHK-PARP combination, NCI-H460dnp53; assay type: cell-based
Description: as §1, §2, §3, §4

SW 620 tumors = test: SW 620 tumor growth inhibition in female nude mice; assay type: in vivo; conditions: 3 weeks
Description: (§5) SW 620 tumors were staged in female nude mice as described in Chapter 31 “In vivo Tumor response End Points” by B. A. Teicher (see “Tumor Models in Cancer Research” edited by Beverly A. Teicher, p596. Published by Humana Press Inc. 2002). Treatment started when tumors reached ˜170 mm^3. There were 6 groups in this study with n=10/group. PARP inhibitor 4-[3-(4-Cyclopropanecarbonyl-piperazine-1-carbonyl)-4-fluoro-benzyl]-2H-phthalazin-1-one was given 5 times weekly at 50 mg/kg PO. CHK inhibitor 5-(3-Fluoro-phenyl)-3-ureido-thiophene-2-carboxylic acid (S)-piperidin-3-ylamide was given at 12.5 mg/kg and 25 mg/kg twice weekly IV. The combination groups received PARP inhibitor at 50 mg/kg (5 times a week) and, 2 hours later, the CHK inhibitor at 12.5 or 25 mg/kg (twice a week). Mice received 3 weeks of treatment. Overall, treatment was well tolerated except in one case where a mouse was receiving a CHK inhibitor in the 25 mg/kg group it was found dead prior to study endpoint.

[1] = Tolerability / max weight loss in the SW 620 tumor study; assay type: in vivo; conditions: for Max weight loss: 3 weeks, female nude mice
Description: as §5

SMILES	Activity of CHK inhibitor as a single agent at the constant concentration used (SW620 cell line; 0.28 uM, determined previously)	Activity of CHK inhibitor as a single agent at the constant concentration used (NCI-H460dnp53 cell line; 0.33 uM, determined previously)	Tumor Growth Inhibition % (SW 620 tumors; 12.5 mg/kg twice weekly IV, p > 0.05) [%]	Tumor Growth Inhibition % (SW 620 tumors; 25 mg/kg twice weekly IV, p > 0.05) [%]	Max weight loss ([1]; 12.5 mg/kg twice weekly IV) [%]	Death prior to study endpoint ([1]; 25 mg/kg group, one mouse)	Max weight loss ([1]; 25 mg/kg twice weekly IV) [%]	IC50 (SW620 cell line; constant CHK inhibitor 0.28 uM, simultaneous, 4 days, from 2 independent experiments, not directly comparable, read-out: IC50 of PARP inhibitor, CHK inhibitor + PARP inhibitor simultaneous) [µM]	IC50 (SW620 cell line; single agent, 4 days exposure, representative, 3 experiments, read-out: IC50 of PARP inhibitor alone) [µM]	IC50 (NCI-H460dnp53 cell line; 96 h, constant CHK inhibitor 0.33 uM, simultaneous addition, 4 days, 3 experiments, read-out: IC50 of PARP inhibitor, CHK inhibitor + PARP inhibitor simultaneous) [µM]	IC50 (NCI-H460dnp53 cell line; 96 h, single agent, 4 days exposure, representative, 3 experiments, read-out: IC50 of PARP inhibitor alone) [µM]	IC50 (NCI-H460dnp53 cell line; CHK inhibitor 24 hours, then both drugs for additional 72 hours, 1 experiment, read-out: IC50 of PARP inhibitor, CHK inhibitor followed by PARP inhibitor) [µM]	IC50 (NCI-H460dnp53 cell line; PARP inhibitor 24 hours, then both drugs for additional 72 hours, 1 experiment, read-out: IC50 of PARP inhibitor, PARP inhibitor followed by CHK inhibitor) [µM]	Tumor Growth Inhibition % (SW 620 tumors; 50 mg/kg PO 5 times weekly, p > 0.1) [%]
NC(=O)Nc1cc(-c2cccc(F)c2)sc1C(=O)N[C@H]1CCCNC1 [CHK inhibitor, 5-(3-Fluoro-phenyl)-3-ureido-thiophene-2-carboxylic acid (S)-piperidin-3-ylamide]	little or no activity	little or no activity	15	22	2	found dead	1	–	–	–	–	–	–	–
O=C(c1cc(Cc2n[nH]c(=O)c3ccccc23)ccc1F)N1CCN(C(=O)C2CC2)CC1 [PARP inhibitor, 4-[3-(4-Cyclopropanecarbonyl-piperazine-1-carbonyl)-4-fluoro-benzyl]-2H-phthalazin-1-one]	–	–	–	–	–	–	–	5.8	19.4	1.9	17.6	4.1	3.6	22
